Test results as given in PubChem BioAssay (NCI).
Where “and” joins values, the source holds several entries; their conditions need not be identical. Equal values may be shown once.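 The compound was tested at five concentrations on cells cultured in 96-well plates, with a 48-hour exposure period. GI50: concentration for 50% inhibition of growth. TGI: concentration producing complete growth inhibition.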

Experiments:
Test in all cases: DTP human tumour cell line panel, 48 h
[1] = test system: HCT-15 colon
[2] = test system: COLO 205 colon
[3] = test system: EKVX NSCLC
[4] = test system: NCI-H226 lung
[5] = test system: HOP-62 NSCLC
[6] = test system: OVCAR-4 ovarian
[7] = test system: NCI-H460 lung
[8] = test system: SNB-75 CNS
[9] = test system: A498 renal
[10] = test system: SW-620 colon

Row | Structure (SMILES) | TGI [1] | TGI [2] | TGI [3] | TGI [4] | TGI [5] | TGI [6] | TGI [7] | TGI [8] | TGI [9] | TGI [10] | GI50 [1] | GI50 [2] | GI50 [3] | GI50 [4] | GI50 [6] | GI50 [7] | GI50 [8] | GI50 [9] | GI50 [10] | GI50 [5]
1 | N#CCCN(CCC#N)c1ccc(C=Nc2ccc(F)cc2)cc1 | > 100 µM | 70.3 µM | > 100 µM | > 100 µM | > 100 µM | > 100 µM | > 100 µM | > 100 µM | > 100 µM | > 100 µM | – | – | – | – | – | – | – | – | – | –
2 | O=C(c1ccccc1)C(Br)C(Br)c1ccccc1 (stereo not drawn) | 9.76 µM | 3.5 µM | 32.7 µM | 7.66 µM | – | 3.08 µM | 29.5 µM | 25.6 µM | 25.5 µM | 3.28 µM | 2.96 µM | 1.92 µM | 14.6 µM | 2.94 µM | 1.66 µM | 13.8 µM | 12.1 µM | 12.8 µM | 1.69 µM | –
3 | CC(=O)OCC1OC(n2c(=S)n(-c3ccccc3)c(=O)c3cc(Br)cc(Br)c32)C(OC(C)=O)C(OC(C)=O)C1OC(C)=O (stereo not drawn) | > 100 µM | > 100 µM | > 100 µM | > 100 µM | 54.8 µM and > 100 µM | – | > 100 µM | 92.5 µM and > 100 µM | > 100 µM | > 100 µM | – | – | – | – | – | – | – | – | – | 19.5 µM and > 100 µM
4 | Clc1ccc2c(NCCCN3CCN(c4nc(N5CCOCC5)nc5ccccc45)CC3)ccnc2c1 | – | 3.32 µM | – | – | – | 4.64 µM | 3.84 µM | 3.3 µM | 3.11 µM | 3.5 µM | – | 1.66 µM | – | – | 1.9 µM | 1.91 µM | 1.85 µM | 1.57 µM | 1.62 µM | –
5 | O=C(Oc1ccc2c(c1)CN(Cc1ccccc1)CO2)c1ccccc1 | 36.2 µM | 31 µM | 33.4 µM | – | 38.6 µM | 32.8 µM | 36.1 µM | 32.5 µM | 31.7 µM | 56.4 µM | – | – | – | – | – | – | – | – | – | –
6 | CN(C)c1ccc(O[Si](Oc2ccc(N(C)C)cc2)(Oc2ccc(N(C)C)cc2)Oc2ccc(N(C)C)cc2)cc1 | – | > 100 µM | > 100 µM | > 100 µM | > 100 µM | > 100 µM | – | > 100 µM | > 100 µM | > 100 µM | – | – | – | – | – | – | – | – | – | –
7 | CCCCCCCCCCCCCCC(C)CCC(=O)O (stereo not drawn) | – | > 100 µM | > 100 µM | > 100 µM | > 100 µM | > 100 µM | > 100 µM | > 100 µM | > 100 µM | > 100 µM | – | – | – | – | – | – | – | – | – | –
8 | N/C(=N\C(N)=N\c1nc2ccccc2s1)c1cnccn1 | > 100 µM | – | > 100 µM | 6.34 µM | 16.1 µM | > 100 µM | > 100 µM | 15.3 µM | 3.89 µM | > 100 µM | 3.12 µM | – | 4.08 µM | 2.45 µM | 3.38 µM | 3.59 µM | 2.15 µM | 1.45 µM | 3.68 µM | 2.92 µM
9 | OCC#Cc1ccccc1C#Cc1ccc(C#Cc2ccccc2)cc1 | 38.5 µM | 70.7 µM | 77.9 µM | 43 µM | – | > 100 µM | 79.8 µM | > 100 µM | 30.8 µM | 44.4 µM | 18.1 µM | 24.9 µM | 25.2 µM | 18.4 µM | 20.4 µM | 20.5 µM | 32.4 µM | 15.6 µM | 17.2 µM | –
10 | COC(=O)c1ccc2[nH]c(O)c(C(=Nc3ccc(N(C)C(=O)CN4CCN(C)CC4)cc3)c3ccccc3)c2c1 | 8.4 µM | 2.45 µM | 16.2 µM | 4.99 µM | 13 µM | 2.78 µM | 5.09 µM | – | 5.39 µM | 4.27 µM | 1.77 µM | 0.7 µM | 2.98 µM | 0.993 µM | 0.956 µM | 1.87 µM | – | 1.91 µM | 0.795 µM | 2.1 µM
11 | CC1CC(C)C(C(O)CC2CC(=O)N(c3ccccc3)C(=O)C2)C(O)C1 (stereo not drawn) | – | > 100 µM | > 100 µM | > 100 µM | > 100 µM | > 100 µM | > 100 µM | > 100 µM | > 100 µM | > 100 µM | – | – | – | – | – | – | – | – | – | –
12 | COC(=O)[C@H](Cc1cn(C)cn1)NC(=O)[C@@H](NC(=O)Nc1cc(C(F)(F)F)cc(C(F)(F)F)c1)C(C)C | > 10 µM | > 10 µM | – | > 10 µM | 9.07 µM | > 10 µM | > 10 µM | > 10 µM | > 10 µM | 8.25 µM | > 10 µM | 4.94 µM | – | > 10 µM | 4.58 µM | 3.53 µM | 6.44 µM | > 10 µM | 2.59 µM | 2.91 µM
13 | Nc1ncc(C2[C@H](CNC(=O)c3cc(Br)c[nH]3)C(CNC(=O)c3cc(Br)c[nH]3)[C@@H]2c2cnc(N)[nH]2)[nH]1 (stereo partly drawn) | > 50 µM | – | 45.6 µM | > 50 µM | > 50 µM | > 50 µM | > 50 µM | – | > 50 µM | > 50 µM | > 50 µM | – | 5.56 µM | > 50 µM | > 50 µM | > 50 µM | – | > 50 µM | > 50 µM | > 50 µM
14 | CCCCC[C@@H](C/C=C/CCC(=O)NC/C(=C/Cl)[C@H]1C(=O)C(C)(C)C(=O)[C@@H](C)[C@@]1(C)O)OC | 32 µM | 33.6 µM | 30.5 µM | 36.1 µM | – | 45.8 µM | 35.1 µM | 44.7 µM | 55 µM | 39.3 µM | 17.1 µM | 18.5 µM | 13.5 µM | 18 µM | 20 µM | 17.7 µM | 20.5 µM | 26 µM | 20.8 µM | –
15 | COc1cc(N(CCC#N)CCC#N)ccc1/C(N=Nc1ccc(C(=O)O)cc1)=N/NC(=O)c1cc(Br)ccc1O | 95 µg/mL | 140 µg/mL | > 150 µg/mL | > 150 µg/mL | – | 65.5 µg/mL | > 150 µg/mL | 130 µg/mL | > 150 µg/mL | > 150 µg/mL | 35.8 µg/mL | 43.3 µg/mL | 137 µg/mL | 53.2 µg/mL | 30 µg/mL | 40.9 µg/mL | 57.2 µg/mL | > 150 µg/mL | > 150 µg/mL | –
16 | NNC(=O)N/N=C1\CN(c2ccc(Cl)cc2Cl)C(=O)C(=O)C1c1nc2ccccc2o1 (stereo not drawn) | – | > 100 µM | > 100 µM | > 100 µM | > 100 µM | > 100 µM | > 100 µM | > 100 µM | > 100 µM | > 100 µM | – | – | – | – | – | – | – | – | – | –
